Assay results taken from patent US20050143433A1, “Substituted heterocycles useful for treating HCV infection” (priority 2003, published 2005).
pIC50: −log10 of the molar value.

Tested on: HCV replicon (5-2 Luc replicon-comprising cells)
Assay: HCV replicon luciferase emission assay
Format: cell-based
Details: Hepatitis C virus; 5-2 Luc replicon cells, 24 hours with compound, 50% reduction in luciferase emission
Excerpt: The inhibitory activity of certain exemplary compounds of the invention was confirmed using an HCV replicon assay. The HCV replicon can include such features as the HCV 5′ untranslated region including the HCV IRES, the HCV 3′ untranslated region, selected HCV genes encoding HCV polypeptides, selectable markers, and a reporter gene such as luciferase, GFP, etc. In the assay, actively dividing 5-2 Luc replicon-comprising cells (obtained from Rolf Bartenschlager; see Lohmann et al., 1999, Science 285:110-113) were seeded at a density of between about 5,000 and 7,500 cells/well onto 96 well plates (about 90 μl of cells per well) and incubated at 37° C. and 5% CO2 for 24 hours. Then, the test compound (in a volume of about 10 μl) was added to the wells at various concentrations and the cells were incubated for an additional 24 hours before luciferase assay. The media was aspirated from each well and Bright-Glo (Promega, Madison, Wis.) luciferase assay reagents were added to each well according to the manufacturer's instructions. Briefly, the Bright-Glo reagent was diluted 1:1 with PBS and 100 μl of diluted reagent was added to each well. After 5 min of incubation at room temperature, luciferin emission was quantified with a luminometer. In this assay, the amount of test compound that yielded a 50% reduction in luciferase emission (IC50) was determined.

`O=C1c2ccccc2-c2onc3ccc(N4CC4)c1c23` [Compound 2] gave a pIC50 of 6.10.
